# Reference: patent US11021413B2, “Benzylpropargylether as nitrification inhibitors” (BASF SE, priority 2014, dated 2021)
# Test system: nitrification
# Test: Inhibition of nitrification in soil (48 well plate, ammonium sulfate, colour reaction read at 540 nm)
# Settings: dose of 5±1 ppm; field soil; up to 72 hrs at room temperature; compared to control (DMSO only)
# Protocol: The compounds of the invention have been tested as follows in terms of the inhibition of nitrification:
# Soil was sampled fresh from a field (e.g. Limburgerhof), dried and sieved through a 500 μm sieve. Approximately 200 mg of soil were placed into each well of a 48 well plate. […] 6 μmol ammonium sulfate was added per well as well as 4.8 mg NaClO3.
# Subsequently, the samples were incubated at room temperature for up to 72 hrs. After the incubation period 64 mg KCl were added and mixed. 25 μl of the supernatant were placed into a fresh plate and 260 μl of a color reaction solution (from Merck Nr 1.11799.0100) were added. Measurements were taken with a Tecan plate Reader at 540 nm wavelength.
# Inhibition is calculated as x=% activity compared to control, and converted to 100-x to give the value of inhibition, rather than activity.
row,SMILES,IN (best inhibition value obtained for a compound) [%]
1,C#CCOCc1ccc(COCC#C)cc1 [Compound 1-23],18
2,C#CCOCc1ccc(OC(C)C)cc1 [Compound 1-24],18
3,C#CCOCc1ccc(F)cc1 [Compound 1-25],87
4,C#CCOCc1ccc(OCC)cc1 [Compound 1-26],69
5,C#CCOCc1ccc(OCCC)cc1 [Compound 1-27],59
6,C#CCOCc1ccccc1 [Compound 1-28],88
7,C#CCOCc1ccc(C)cc1 [Compound 1-29],37
8,C#CCOCc1ccc(C#N)cc1 [Compound 1-30],25
9,C#CCOCc1ccc(C(=O)O)cc1 [Compound 1-31],18
10,C#CCOCc1ccc(I)cc1 [Compound 1-32],53
11,C#CCOCc1ccc(C(=O)N(C)C)cc1 [Compound 1-33],24

# Same assay, conditions: dose of 10 ppm; field soil; up to 72 hrs at room temperature; compared to control (DMSO only)
row,SMILES,IN (best inhibition value obtained for a compound) [%]
1,C#CCOCc1ccc(OC)c(OC)c1 [Compound 1-1],15
2,C#CCOCc1ccc(Br)cc1 [Compound 1-2],48
3,C#CCOCc1ccc(Oc2ccccc2)cc1 [Compound 1-3],11
4,C#CCOCc1ccc(Oc2ccc(F)cc2)cc1 [Compound 1-4],15
5,C#CCOCc1ccccc1F [Compound 1-5],27
6,C#CCOC(Cn1cncn1)c1ccc(Oc2ccc(Cl)cc2)cc1Cl (stereo not shown) [Compound 1-6],10
7,C#CCOC(Cn1cncn1)c1ccc(Oc2ccc(Cl)cc2)cc1C(F)(F)F (stereo not shown) [Compound 1-7],11
8,C#CCOCc1ccc(OC)cc1 [Compound 1-8],57
9,C#CCOCc1cccc(OC)c1 [Compound 1-9],20
10,C#CCOCc1ccc(Cl)cc1Cl [Compound 1-10],14
11,C#CCOC(Cn1cncn1)c1ccc(Br)cc1 (stereo not shown) [Compound 1-12],15
12,C#CCOC(Cn1cncn1)c1ccc(F)cc1 (stereo not shown) [Compound 1-13],10
13,C#CCOCc1ccc(Cl)cc1C [Compound 1-14],56
14,C#CCOCc1ccc(Cl)cc1 [Compound 1-15],58
15,C#CCOCc1ccc(Oc2ccc(Cl)cc2)cc1 [Compound 1-16],11
16,C#CCOC(Cn1cncn1)c1ccc(Oc2ccc(Cl)cc2)cc1 (stereo not shown) [Compound 1-18],10
17,C#CCOC(Cn1cncn1)c1cc(OC)c(OC)c(OC)c1 (stereo not shown) [Compound 1-20],10
18,C#CCOC(c1ccccc1)C(CCCC)n1cncn1 (stereo not shown) [Compound 1-21],20
19,C#CCOC(CC(n1cncn1)C(C)(C)C)c1ccc(Cl)cc1Cl (stereo not shown) [Compound 1-22],11

# Same assay, conditions: dose of 10 ppm; same conditions as Example 1.1
row,SMILES,"IN (inhibition value), comparative example [%]"
1,"C#Cc1ccccc1 [Phenylacetylene, phenylacetylene, reference compound]",7
